Experimental data as given in patent US7572777B2, “Florfenicol prodrug having improved water solubility” (Schering-Plough Animal Health Corp., priority 2003, dated 2009).
One block for each compound: values may come before it.

Experiments:
[1] = Conversion of prodrug to florfenicol in bovine serum; settings: 37° C., after 4 hours (FIG. 1)
[2] = Conversion of prodrug to florfenicol in rat serum; settings: 37° C., after 4 hours (FIG. 1)
[3] = Stability of the phosphate prodrug in aqueous solutions; type: physicochemical; settings: for % Compound B (cyclic phosphate formed) / % Compound C (free florfenicol formed) / % Compound A: 40° C., 30 days under nitrogen; for % Compound A: initial purity 98.3%
Source text: Although relatively stable in aqueous solutions, over prolonged periods of time the phosphate ester of florfenicol (Formula I) undergoes slow degradation resulting in the release of free florfenicol as well as the formation of cyclic phosphate diester. The formation of the cyclic diester occurs through the phosphate anion displacement of fluorine and requires participation of the phosphate di-anion, which is much more nucleophilic than the corresponding mono-anion. Therefore, the rate of formation of the cyclic diester is largely dependent on the pH of the solution or more generally, on the degree of the phosphate ionization. […]. However, even such small changes of pH result in noticeable differences of the amount of the cyclic phosphate diester formed.

[4] = Conversion of florfenicol phosphate to florfenicol in dogs (plasma florfenicol after iv dosing); type: in vivo; settings: approximately 11 mg/kg, HPLC-MS/MS (FIG. 3)
Method: . The plot depicts florfenicol concentrations in the plasma of three dogs following intravenous administration of the florfenicol phosphate ester prodrug at a dose of approximately 11.1 mg/kg of body weight, which equates to a florfenicol equivalent dose of 8.3 mg/kg. Each symbol denotes the data from a different dog.

[5] = Conversion of florfenicol phosphate to florfenicol in swine (plasma florfenicol after iv dosing); type: in vivo; settings: pigs, approximately 6.7 mg/kg (FIG. 4)
Method: FIG. 4 is a graphic presentation of florfenicol concentrations in the plasma of pigs following intravenous administration of florfenicol phosphate ester. The plot depicts florfenicol concentrations detected in the plasma of three pigs following intravenous administration of the florfenicol phosphate ester prodrug at a dose of approximately 6.7 mg/kg of body weight, which equates to a florfenicol equivalent dose of 5 mg/kg. Each symbol denotes the data from a different pig.
[…]. Plasma samples were collected after drug administration and analyzed for concentrations of florfenicol. […].

[6] = Conversion of florfenicol phosphate to florfenicol in cattle (plasma florfenicol after iv dosing); type: in vivo; settings: calves, approximately 10 mg/kg, HPLC-MS/MS (FIG. 2)
Source text: […]. Each symbol denotes the data from a different calf.

physchem = type: physicochemical
Method: Successive aliquots of solid phosphate ester prodrug (sodium salt) were added to water with agitation. Addition was continued until mixing became difficult due to high viscosity, at which point all of the prodrug remained in solution.

[7] = pH 4.48 adjusted with ethanolamine, 300 mg/mL active florfenicol
[8] = pH 4.54, aqueous solution 300 mg/mL active florfenicol
[9] = pH 4.95, aqueous solution 300 mg/mL active florfenicol
[10] = pH 5.03 adjusted with ethanolamine, 300 mg/mL active florfenicol
[11] = pH 5.51 adjusted with ethanolamine, 300 mg/mL active florfenicol
[12] = pH 5.53, aqueous solution 300 mg/mL active florfenicol
[13] = listed as Florfenicol phosphate

SMILES: CS(=O)(=O)c1ccc([C@@H](OC(=O)CCCC(=O)O)[C@@H](CF)NC(=O)C(Cl)Cl)cc1 [glutarate ester of florfenicol]
conversion (hydrolysis) to florfenicol [1]: approximately 6%
conversion (hydrolysis) to florfenicol [2]: about 3%

stability in aqueous solution versus pH ([3]; below pH 4 or at neutral or higher pH ranges): less stable
stability of aqueous solutions of the prodrug ([3]; close to one equivalent of sodium hydroxide or ethanolamine added to concentrated aqueous solution, approximately pH 4.5 to pH 5.5): Satisfactory stability
effect of ionic strength on aqueous stability ([3]; increased ionic strength): reduces the aqueous stability
% Compound B (cyclic phosphate formed) [3, 7]: 0.18%
% Compound C (free florfenicol formed) [3, 7]: 0.92%
% Compound A [3, 7]: 93.43%
% Compound B (cyclic phosphate formed) [3, 8]: 0.17%
% Compound C (free florfenicol formed) [3, 8]: 1.02%
% Compound A [3, 8]: 94.40%
% Compound B (cyclic phosphate formed) [3, 9]: 0.37%
% Compound C (free florfenicol formed) [3, 9]: 1.01%
% Compound A [3, 9]: 93.38%
% Compound B (cyclic phosphate formed) [3, 10]: 0.58%
% Compound C (free florfenicol formed) [3, 10]: 0.86%
% Compound A [3, 10]: 95.83%
% Compound B (cyclic phosphate formed) [3, 11]: 1.25%
% Compound C (free florfenicol formed) [3, 11]: 0.70%
% Compound A [3, 11]: 93.83%
% Compound B (cyclic phosphate formed) [3, 12]: 1.41%
% Compound C (free florfenicol formed) [3, 12]: 0.93%
% Compound A [3, 12]: 93.06%
plasma florfenicol concentrations following treatment [4, 13]: increased rapidly
plasma florfenicol concentrations following treatment [5, 13]: increased rapidly
plasma florfenicol concentrations following treatment [6, 13]: increased rapidly
solubility (physchem; water, thermodynamic from solid): > 600 mg/mL
SMILES: CS(=O)(=O)c1ccc([C@@H](OP(=O)(O)O)[C@@H](CF)NC(=O)C(Cl)Cl)cc1 [florfenicol phosphate ester]
plasma florfenicol concentrations following treatment [4]: substantial concentrations of florfenicol were detected
plasma florfenicol concentrations following treatment [5]: substantial concentrations of florfenicol were detected
plasma florfenicol concentrations following treatment [6]: substantial concentrations of florfenicol were detected

conversion of the prodrug into cyclic diester ([3]; heating a solution of the bis sodium salt): almost quantitative conversion
aqueous solubility (original concentration by HPLC) (physchem): greater than 700 mg/mL
SMILES: CS(=O)(=O)c1ccc([C@@H](OP(=O)([O-])[O-])[C@@H](CF)NC(=O)C(Cl)Cl)cc1.[Na+].[Na+] [sodium salt of florfenicol phosphate, [1R, 2S-1-(4-Methanesulfonylphenyl)-2-(2,2-dichloroacetylamino)-3-fluoropropyl]phosphate disodium salt]
